These results are taken from ChEMBL document CHEMBL1857833, “Screening and optimization of specific chemical series against human African Trypanosomiasis (HAT)”.

≈ marks a conversion by molar mass, not a printed value.

The nature of data set [1]: DNDI: Cytotoxicity against L929 mouse fibroblasts, CYTO-SP, 24 hour. The conditions noted are these: mouse, L929 mouse fibroblasts. It is filed as toxicity, cell-based.
For data set [2], the system named is Trypanosoma brucei. Put plainly: DNDI: Inhibition of Human African Trypanosomiasis, SBRI 427, in vitro. It is filed as functional, organism-based. The following applies: Trypanosoma brucei, SBRI 427; read-out: IC50.

For `CC1CCC(N/C(=N\O)c2cccnc2Oc2ccccc2OC(C)C)CC1` (centres undefined), in data set [1], the IC50 – broadly, the concentration that gives 50% inhibition – at 24 h is over 50 µg/mL. Besides, in data set [2], the IC50 stood at 0.55 µg/mL (≈ 1.43 µM).

The compound `COCC(C)N/C(=N\O)c1ccnc(Oc2ccc(F)c(Cl)c2)c1` (centres undefined) showed an IC50 at 24 h in data set [1] of over 50 µg/mL. In addition, the IC50 in data set [2] was determined as 0.82 µg/mL (≈ 2.32 µM).

Consider `O=C(NC1CCCCC1)c1cccnc1Oc1ccccc1`, for which the IC50 at 24 h in data set [1] was over 50 µg/mL. Further, in data set [2], the IC50 is over 5 µg/mL.

In data set [1], `COc1cccc(CN/C(=N\O)c2cccnc2Oc2ccc(Cl)cc2)c1` registered an IC50 at 24 h of over 50 µg/mL. For the same compound, in data set [2], the IC50 amounted to 1.1 µg/mL (≈ 2.87 µM).

Compound `CCC(CC)N/C(=N\O)c1cccnc1Oc1ccc(C)c2c1CCC2` returned an IC50 at 24 h in data set [1] of over 50 µg/mL. The IC50 in data set [2] was found to be 0.37 µg/mL (≈ 1.05 µM).

Take `Cc1cc(C)cc(CN/C(=N\O)c2cccnc2Oc2c(F)cccc2F)c1`: the concentration for half-maximal inhibition (IC50) at 24 h in data set [1] is over 50 µg/mL. For the same compound, the half-maximal inhibitory concentration (IC50) in data set [2] came to 1.08 µg/mL (≈ 2.82 µM).

`CC(C)c1ccc(Oc2ncccc2/C(=N/O)NCC2CCCO2)cc1` (centres undefined) came in with an IC50 at 24 h in data set [1] of over 50 µg/mL. In data set [2], the IC50 turned out to be 0.54 µg/mL (≈ 1.52 µM).

The compound `CCN(CC)/C(=N\O)c1ccccc1-c1ccccc1` displayed an IC50 at 24 h in data set [1] of over 50 µg/mL. The IC50 in data set [2] was over 5 µg/mL.

Take `O=C(NC1CCCCC1)c1cccnc1Cl`: the IC50 at 24 h in data set [1] is over 50 µg/mL. In data set [2], the IC50 was over 5 µg/mL.

Take `CSc1ccccc1Oc1ncccc1/C(N)=N\O`: in data set [1], the IC50 at 24 h is over 5 µg/mL. In data set [2], the IC50 was over 5 µg/mL.

Take `O/N=C(\NCc1c(F)cccc1F)c1cccnc1Oc1c(F)cccc1F`: the IC50 at 24 h in data set [1] is over 50 µg/mL. Further, the IC50 in data set [2] is 1.15 µg/mL (≈ 2.94 µM).

Take `CC(C)N1CCN(/C(=N\O)c2cccnc2Oc2cccc(C(F)(F)F)c2)CC1`: in data set [1], the IC50 at 24 h was over 50 µg/mL. Moreover, in data set [2], the IC50 turned out to be 0.73 µg/mL (≈ 1.79 µM).

Consider `COc1ccc(Oc2ncccc2/C(=N/O)NCC2CC2)cc1`, for which the concentration for half-maximal inhibition (IC50) at 24 h in data set [1] is over 50 µg/mL. For the same compound, the IC50 in data set [2] turned out to be 0.34 µg/mL (≈ 1.09 µM).

`COCC(C)N/C(=N\O)c1cccnc1Oc1ccc(C(C)C)cc1` (centres undefined) gave a half-inhibitory concentration (IC50) at 24 h in data set [1] of over 50 µg/mL. Further, the IC50 in data set [2] amounted to 0.92 µg/mL (≈ 2.68 µM).

For `O/N=C(/c1ccccc1-c1ccccc1)N1CCCCCCC1`, the IC50 at 24 h in data set [1] was over 50 µg/mL. For the same compound, the IC50 in data set [2] was over 5 µg/mL.

Regarding `O/N=C(\NC1CCCC1)c1cccnc1Oc1c(F)cccc1F`, the IC50 at 24 h in data set [1] is over 50 µg/mL. Moreover, in data set [2], the IC50 amounted to 0.23 µg/mL (≈ 0.69 µM).

On to `O/N=C(\NCc1ccccc1)c1cccnc1Oc1cc(Cl)ccc1Cl`, for which the IC50 at 24 h in data set [1] was over 50 µg/mL. Moreover, the IC50 in data set [2] came out at 0.77 µg/mL (≈ 1.98 µM).

In data set [1], `O=C(NC1CCCCC1)c1cccnc1Oc1ccccc1Cl` gave an IC50 at 24 h of over 50 µg/mL. Further, the IC50 in data set [2] was over 5 µg/mL.

In turn, `CC(C)COc1ncccc1/C(=N/O)NCC(C)(C)C` had a 50% inhibitory concentration (IC50) at 24 h in data set [1] of over 50 µg/mL. Further, the IC50 in data set [2] stood at 1.12 µg/mL (≈ 4.01 µM).

`COCCN/C(=N\O)c1cccnc1Oc1ccc(C(C)C)cc1` had an IC50 at 24 h in data set [1] of over 50 µg/mL. In addition, the 50% inhibitory concentration (IC50) in data set [2] was found to be 1.04 µg/mL (≈ 3.16 µM).

Compound `N/C(=N/O)c1cccnc1Oc1ccccc1Br` yielded a half-maximal inhibitory concentration (IC50) at 24 h in data set [1] of over 50 µg/mL. Also, in data set [2], the IC50 was over 5 µg/mL.

Take `O/N=C(\NCC1CCCCC1)c1cccnc1Oc1c(F)cccc1F`: the IC50 at 24 h in data set [1] is over 50 µg/mL. Also, the IC50 in data set [2] is 0.91 µg/mL (≈ 2.52 µM).

Take `CCC(CC)N/C(=N\O)c1ccc(C)nc1Oc1ccc(SC)cc1`: the concentration for half-maximal inhibition (IC50) at 24 h in data set [1] was over 50 µg/mL. Besides, the IC50 in data set [2] stood at 1.08 µg/mL (≈ 3 µM).

As for `CCOc1ccccc1CN/C(=N\O)c1cccnc1Oc1ccc(C)c2c1CCC2`, in data set [1], the IC50 at 24 h is over 50 µg/mL. In data set [2], the IC50 stood at 0.73 µg/mL (≈ 1.75 µM).

Compound `Cc1ccccc1CN/C(=N\O)c1cccnc1Oc1cc(Cl)ccc1Cl` showed an IC50 at 24 h in data set [1] of 33.6 µg/mL (≈ 83.6 µM). Moreover, in data set [2], the IC50 was 1.06 µg/mL (≈ 2.63 µM).

Consider `CCc1ccc(Oc2ncccc2/C(=N/O)NCCOC)cc1`, for which the IC50 at 24 h in data set [1] was over 50 µg/mL. Also, the 50% inhibitory concentration (IC50) in data set [2] was 1.12 µg/mL (≈ 3.55 µM).

`CC(C)Oc1ccccc1Oc1ncccc1/C(=N/O)NC1CCCCC1`: the half-maximal inhibitory concentration (IC50) at 24 h in data set [1] was over 50 µg/mL. In addition, the IC50 in data set [2] came out at 0.46 µg/mL (≈ 1.25 µM).

In data set [1], `CC(C)(C)CN/C(=N\O)c1cccnc1Oc1c(F)cccc1F` displayed an IC50 at 24 h of 45.4 µg/mL (≈ 135 µM). Besides, the 50% inhibitory concentration (IC50) in data set [2] is 0.39 µg/mL (≈ 1.16 µM).

`O/N=C(\NC1CCCCC1)c1cccnc1Oc1ccc2ccccc2c1` returned an IC50 at 24 h in data set [1] of over 50 µg/mL. In data set [2], the IC50 is 0.08 µg/mL (≈ 0.221 µM).

In data set [1], `CC1CC(N/C(=N\O)c2cccnc2Oc2cc(Cl)ccc2Cl)CC(C)(C)C1` (centres undefined) gave an IC50 at 24 h of 30.9 µg/mL (≈ 73.2 µM). Moreover, the half-inhibitory concentration (IC50) in data set [2] was determined as 0.03 µg/mL (≈ 0.071 µM).

The compound `COc1ccc(Oc2ncccc2/C(=N/O)NC2CCC2)cc1` had an IC50 at 24 h in data set [1] of over 50 µg/mL. Also, the IC50 in data set [2] is 0.28 µg/mL (≈ 0.894 µM).

`CC1CC(N/C(=N\O)c2cccnc2Oc2ccccc2OC(C)C)CC(C)(C)C1` (centres undefined) came in with an IC50 at 24 h in data set [1] of over 50 µg/mL. Moreover, in data set [2], the IC50 was found to be 1.06 µg/mL (≈ 2.58 µM).

Regarding `CC1CCC(N/C(=N\O)c2cccnc2Oc2c(F)cccc2F)CC1` (centres undefined), in data set [1], the IC50 at 24 h is over 50 µg/mL. For the same compound, the IC50 in data set [2] worked out at 0.99 µg/mL (≈ 2.74 µM).

In turn, `CC1CC(N/C(=N\O)c2cccnc2Oc2ccc(F)c(Cl)c2)CC(C)(C)C1` (centres undefined) returned an IC50 at 24 h in data set [1] of 28.2 µg/mL (≈ 69.4 µM). In addition, the IC50 in data set [2] came out at 0.07 µg/mL (≈ 0.172 µM).

`COc1cc(C)ccc1Oc1nc(C)ccc1/C(=N/O)NCC(C)(C)C` gave an IC50 at 24 h in data set [1] of under 50 µg/mL. Besides, the half-maximal inhibitory concentration (IC50) in data set [2] was found to be 0.09 µg/mL (≈ 0.252 µM).

In data set [1], `CCC(CC)N/C(=N\O)c1cccnc1Oc1c(F)cccc1F` displayed an IC50 at 24 h of over 50 µg/mL. Further, the IC50 in data set [2] stood at 0.31 µg/mL (≈ 0.924 µM).

Take `CC1CC(N/C(=N\O)c2cccnc2Oc2c(F)cccc2F)CC(C)(C)C1` (centres undefined): the IC50 at 24 h in data set [1] was 31.5 µg/mL (≈ 80.9 µM). In data set [2], the IC50 stood at 1.12 µg/mL (≈ 2.88 µM).
